From patent US20100160228A1, “METHOD FOR INHIBITING OR STIMULATING ANGIOGENESIS IN AN INDIVIDUAL” (VALTION TEKNILLINEN TUTKIMUSKESKUS, priority 2007, published 2010)

What was measured:
VEGFR2 [1] = test: VEGFR2 internalization assay in HUVEC (microscopy, cold trypsin protection); format: cell-based, human; conditions: for effect on VEGFR2 internalization in confluent cells: confluent HUVEC, peptide 200 nM, FIG. 10C
Description: (§1) FIG. 3. TCPTP activity controls VEGF-dependent responses in endothelial cells. (A) HUVEC were transfected with the constitutively active TCPTP (TC37) or vector control (pCG), stimulated or not with VEGF, and stained for VEGFR2 (red) and nuclei (blue) after fixation and permeabilization. Arrows indicate VEGFR2 vesicles. (B) HUVEC were treated as in (A) and subjected to trypsin digestion on ice. VEGFR2 protected from trypsin (=internalized pool) was detected by immunoblotting. The intensities of VEGFR2 bands were quantified and are expressed relative to pCG-VEGF control. A representative experiment out of 2 with similar results is shown. (C) HUVEC were transfected with no oligo, siRNA against TCPTP or a control siRNA, and TCPTP expression was measured using immunoblotting. Cells were treated with 80 ng/ml VEGF and proliferation of sparse cells plated on gelatin was assayed after 16 h using BrdU-based assay (mean±SD; n=4-6; *, p<0.05). (D) HUVEC were transfected as in (A) and chemotaxis towards VEGF was measured using a Transwell assay for 4 hours. Cells adhering to the bottom of the filter were fixed and stained with crystal violet. Number of migrated cells was counted (mean±SEM, n=3).
FIG. 7. TCPTP activation through the cytoplasmic domain of α1 integrin inhibits internalization of VEGFR2. […] VEGFR2 staining in the perinuclear area of cells (mean±SEM, n=30) was analyzed from blinded samples using densitometry and scored from 0 to 4 (0=no staining, 4=highest expression). […] VEGFR2 protected from trypsin (=internalized pool) was detected by immunoblotting. The intensity of VEGFR2 bands was quantified using densitometry and expressed as arbitrary units. […]
FIG. 10. […] (B) Confluent HUVEC on gelatin were treated with VEGF in the presence or absence of α1TAT or ScrTAT peptide and the number of live cells was detected using WST-1 reagent (mean±SD, n=3). […] The intensity of VEGFR2 bands was quantitated using densitometry (a representative experiment out of 3 with similar results is shown).
VEGFR2 internalization assay. […] The amount of VEGFR2 in each sample was analyzed using immunoblotting.

HUVEC [2] = test: Survival of confluent HUVEC (WST-1); format: cell-based, human; conditions: confluent HUVEC on gelatin, WST-1, FIG. 10B
Description: (§2) FIG. 10. […] (A) Serum-starved HUVEC were plated to confluency on gelatin and treated for 1 h with α1 integrin cytoplasmic tail fusion peptide (α1TAT) or TAT-scramble control fusion peptide (ScrTAT) (both at 200 nM) or not treated, followed by VEGF-induction (15 min) when indicated. Cell lysates were immunoblotted for phosphorylated VEGFR2 (or tubulin as a control). (B) Confluent HUVEC on gelatin were treated with VEGF in the presence or absence of α1TAT or ScrTAT peptide and the number of live cells was detected using WST-1 reagent (mean±SD, n=3). (C) α1TAT treatment has no effect on internalization of VEGFR2 in confluent HUVEC. HUVEC were plated to confluency on gelatin, stimulated or not with the TAT peptides (200 nM) and VEGF, and treated with trypsin on ice. Cells were lysed after inactivation of trypsin and the lysates were immunoblotted for detection of VEGFR2 protected from trypsin (=internalized pool). The intensity of VEGFR2 bands was quantitated using densitometry (a representative experiment out of 3 with similar results is shown).
(§3) Cell proliferation and survival assays. The number of viable HUVEC was analyzed with WST-1 reagent (Roche). Cell proliferation was measured with BrdU assay (Cell proliferation ELISA Biotrak system, Amersham) from siRNA-transfected HUVEC grown in RPMI1640+1% FBS+2 mM L-glutamine supplemented with 80 ng/ml VEGF.

VEGFR2 [3] = test: Immunoblot of phosphorylated VEGFR2 in HUVEC lysates; format: cell-based, human; conditions: for effect on VEGFR2 phosphorylation in confluent cells: confluent HUVEC, FIG. 10A; for effect on VEGFR2 phosphorylation in confluent cells / effect of TAT peptides on VEGFR2 phosphorylation: peptide 200 nM
Description: (§4) FIG. 4. α1 integrin activates TCPTP and attenuates VEGFR2 signalling. (A) Serum-starved subconfluent HUVEC were treated for 1 h with α1 integrin cytoplasmic tail fusion peptide (α1TAT) or TAT-scramble control fusion peptide (ScrTAT) (both at 200 nM) followed by VEGF-induction (100 ng/ml, 15 min) where indicated. Cell lysates were resolved on SDS-PAGE and immunoblotted for phosphorylated VEGFR2 (or tubulin as a control). (B) HUVEC were treated as in (A) and VEGFR2 kinase activity (mean±SD, n=3) was measured from the cell lysates. **, p<0.01. (C) Recombinant, purified TCPTP was incubated with α1 or α2 cytoplasmic tail peptides (L-amino acids) or with α1 and scrambled TAT peptides (D-amino acids) and analyzed for phosphatase activity (mean±SD, n=3).
as §2

[4] = biological target: T1, Recombinant, purified TCPTP (Homo sapiens, UniProt P17706); test: In vitro phosphatase assay with purified TCPTP protein (diFMUP substrate); format: biochemical; conditions: TAT peptides of D-amino acids, FIG. 4C
T1 construct: made in house
T1 sequence (P17706 1-387 isoform P17706-2): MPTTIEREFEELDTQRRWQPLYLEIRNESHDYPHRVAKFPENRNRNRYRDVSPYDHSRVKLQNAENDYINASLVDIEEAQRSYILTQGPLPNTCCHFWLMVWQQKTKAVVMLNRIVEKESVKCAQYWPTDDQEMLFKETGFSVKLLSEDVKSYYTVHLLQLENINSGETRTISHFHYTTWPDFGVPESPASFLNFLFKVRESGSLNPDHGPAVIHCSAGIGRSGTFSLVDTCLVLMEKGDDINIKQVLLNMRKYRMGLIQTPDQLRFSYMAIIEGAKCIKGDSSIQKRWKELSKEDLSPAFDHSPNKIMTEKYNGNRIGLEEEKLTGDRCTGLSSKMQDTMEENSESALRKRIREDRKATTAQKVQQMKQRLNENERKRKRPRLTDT
Description: as §4
Phosphatase and kinase assays. Phosphatase assays were performed as described (8). Briefly, HUVEC were plated to collagen or gelatin coated plates and allowed to adhere for 1 h. TCPTP, SHP2 and control immunocomplexes were isolated from cell lysates, resuspended in the phosphatase assay buffer and assayed for phosphatase activity using 6,8-difluoro-4-methylumbelliferyl phosphate; Molecular Probes) as a substrate in the presence of a serine/threonine phosphatase inhibitor cocktail (Sigma). Thereafter, the antigens from the beads were used for immunoblotting. […]

HUVEC [5] = test: VEGF-induced HUVEC proliferation assay; format: cell-based, human; conditions: subconfluent HUVEC on gelatine, compared to no peptide treatment, n=3
Description: as §1, with “Cells were treated with 80 ng/ml VEGF and proliferation of sparse cells plated on gelatin was assayed after 16 h using BrdU-based assay (mean±SD; n=4-6; *, p<0.05).” left out, “Cells adhering to the bottom of the filter were fixed and stained with crystal violet.” left out
as §3

Row | Sequence | effect on VEGFR2 internalization in confluent cells (VEGFR2 [1]) | effect on survival of HUVEC in confluent cells (HUVEC [2]) | effect on VEGFR2 phosphorylation in confluent cells (VEGFR2 [3]) | effect of TAT peptides on VEGFR2 phosphorylation (VEGFR2 [3]; subconfluent HUVEC, FIG. 4A) | activation of TCPTP phosphatase activity [4] | inhibition of VEGF-induced proliferation (HUVEC [5]) | internalization of VEGFR2 in HUVEC (VEGFR2 [1]; subconfluent HUVEC, peptide 200 nM 1 h, VEGF 100 ng/ml 15 min, FIG. 7) | VEGF-induced autophosphorylation of VEGFR2 at tyrosine 1214 (VEGFR2 [3]; subconfluent HUVEC, peptide 200 nM 1 h, VEGF 100 ng/ml 15 min, FIG. 4A)
1 | YGRKKRRQRRRLKGWRFKLKPKFKEMK (SEQ ID NO 8) [ScrTAT, reference compound] | no effects | no effects | no effects | induced a clear phosphorylation | no effect | 4±4% | – | –
2 | YGRKKRRQRRRWKLGFFKRPLKKKMEK (SEQ ID NO 3) [α1TAT] | no effects | no effects | no effects | effectively attenuated | very good activator | 74±8% | specifically inhibited | markedly inhibited
